In patent publication US20220023358A1, “COMBINATION THERAPIES OF MICROORGANISMS AND IMMUNE MODULATORS FOR USE IN TREATING CANCER” (Synlogic Operating Company, Inc., priority 2018, published 2022):

How the values were obtained:
[1] = tested on: WT, TLR4−/− and STING−/− BMDCs; test: Cytokine mRNA in WT, TLR4−/− and STING−/− BMDCs; type: cell-based, murine; details: 4 hours
Description: (§1) In indicated groups cells were pre-treated with for lh with Cytochalasin D (10 μM). Macrophages or BMDCs incubated in media alone served as a negative control. Cells were analyzed for the upregulation of Ifnbl and 116 mRNA (FIGS. 7D-7G). WT, TLR4^−/− and STING-^−/− BMDCs were treated with Control EcN (MOI: 25), pre-induced SYN1891 (MOI: 25), LPS (100 ng/mL), or smSTING agonist (5 μg/mL) for 4 hours. Cells were analyzed for the upregulation of Ifnb1, Il6 and Il12a mRNA (FIGS. 7H-7J). Data are representative of two or more independent experiments with mean and standard deviation shown. **P<0.005; ***P<0.0005; ****P<0.00001; two-tailed unpaired Student's t-test comparing the indicated groups.
LPS is an integral component of the outer membrane of Gram-negative bacteria and as such LPS recognition by TLR4 plays an important role in the induction of immune responses by these microbes.

[2] = tested on: RAW 264.7 macrophages or WT BMDCs; test: Cytokine mRNA in RAW 264.7 macrophages or WT BMDCs, with or without Cytochalasin D; type: cell-based, murine
Description: as §1
To evaluate the mechanism of action of SYNB1891 in the induction of type I IFNs, bacterial phagocytosis was blocked using cytochalasin D. Cytochalasin D inhibits actin polymerization and prevents phagocytosis, yet it has minimal effect on endocytosis/pinocytosis of soluble small molecules. […] Therefore, phagocytosis of SYNB1891 is required for intracellular CDA release and STING activation in target cells, providing a natural mechanism for preferential activation of APCs in the tumor.

NK cells = details: first-in-human clinical trial; cited from earlier work
[3] = tested on: Hyaluronan or Hyaluronic acid (HA); details: mouse PDA tumors; cited from earlier work

Molecule: Nc1ncnc2c1ncn2[C@@H]1O[C@@H]2COP(O)(=S)O[C@@H]3C(O)[C@@H](COP(O)(=S)O[C@H]2[C@H]1O)O[C@H]3n1cnc2c(N)ncnc21 (stereo partly drawn) [smSTING agonist, 2′3′-c-di-AM(PS)2 (Rp,Rp)]
- IFNβ1 expression in STING−/− BMDCs ([1]; STING−/− BMDCs): completely abrogated
- IFNβ1 expression in TLR4−/− BMDCs ([1]; TLR4−/− BMDCs): preserved
- Cytokines expressed ([2]; 4 hours, 5 μg/mL): led only to IFNβ1 expression
- IFNβ1 induction, effect of Cytochalasin D ([2]; Cytochalasin D pre-treatment): did not affect

Molecule: recombinant human IL-15: recombinant human IL-15 cytokine
- Expansion of NK cells (NK cells): 10 fold

B1: PEGPH20: PEGylated form of rHuPH20, a hyaluronidase (protein, UniProt P38567 36-490, looked up)
Hyaluronidase PH-20: LNFRAPPVIPNVPFLWAWNAPSEFCLGKFDEPLDMSLFSFIGSPRINATGQGVTIFYVDRLGYYPYIDSITGVTVNGGIPQKISLQDHLDKAKKDITFYMPVDNLGMAVIDWEEWRPTWARNWKPKDVYKNRSIELVQQQNVQLSLTEATEKAKQEFEKAGKDFLVETIKLGKLLRPNHLWGYYLFPDCYNHHYKKPGYNGSCFNVEIKRNDDLSWLWNESTALYPSIYLNTQQSPVAATLYVRNRVREAIRVSKIPDAKSPLPVFAYTRIVFTDQVLKFLSQDELVYTFGETVALGASGIVIWGTLSIMRSMKSCLLLDNYMETILNPYIINVTLAAKMCSQVLCQEQGVCIRKNWNSSDYLHLNPDNFAIQLEKGGKFTVRGKPTLEDLEQFSEKFYCSCYSTLSCKEKADVKDTDAVDVCIADGVCIDAFLKPPMETEEPQIFYNASPSTLS
modifications: PEG
notes: PEGylated form of rHuPH20, a hyaluronidase
- Interstitial fluid pressure after treatment [3]: 20-30 mmHg
